The record followed here is patent US11046699B2, “Pyrazolo-pyrimidin-amino-cycloalkyl compounds and their therapeutic uses” (RAPT THERAPEUTICS, INC., priority 2018, dated 2021).

This test addresses GCN2 (Homo sapiens, UniProt Q9P2K8). In words: GCN2 enzymatic endpoint assay: phosphorylation of GFP-eIF2α measured by TR-FRET (Lanthascreen). In kind it is biochemical. The conditions noted are these: tested as described in Example 77; compound and/or hydrochloride, dihydrochloride or trifluoroacetic acid salt; read-out: IC 50 Activity. In outline: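 Endpoint kinase reaction with 2 μM ATP and 80 nM GFP-labelled eIF2α substrate, run at room temperature for 90 min, then stopped with EDTA. Phospho-substrate detected by terbium-antibody TR-FRET, activity taken as the 520/495 nm emission ratio.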
Background: Time-resolved FRET reads energy transfer from a long-lived donor to a nearby acceptor.

A value given as a limit tells only on which side of the number the result lay.

GCN2, sequence (Q9P2K8 whole entry): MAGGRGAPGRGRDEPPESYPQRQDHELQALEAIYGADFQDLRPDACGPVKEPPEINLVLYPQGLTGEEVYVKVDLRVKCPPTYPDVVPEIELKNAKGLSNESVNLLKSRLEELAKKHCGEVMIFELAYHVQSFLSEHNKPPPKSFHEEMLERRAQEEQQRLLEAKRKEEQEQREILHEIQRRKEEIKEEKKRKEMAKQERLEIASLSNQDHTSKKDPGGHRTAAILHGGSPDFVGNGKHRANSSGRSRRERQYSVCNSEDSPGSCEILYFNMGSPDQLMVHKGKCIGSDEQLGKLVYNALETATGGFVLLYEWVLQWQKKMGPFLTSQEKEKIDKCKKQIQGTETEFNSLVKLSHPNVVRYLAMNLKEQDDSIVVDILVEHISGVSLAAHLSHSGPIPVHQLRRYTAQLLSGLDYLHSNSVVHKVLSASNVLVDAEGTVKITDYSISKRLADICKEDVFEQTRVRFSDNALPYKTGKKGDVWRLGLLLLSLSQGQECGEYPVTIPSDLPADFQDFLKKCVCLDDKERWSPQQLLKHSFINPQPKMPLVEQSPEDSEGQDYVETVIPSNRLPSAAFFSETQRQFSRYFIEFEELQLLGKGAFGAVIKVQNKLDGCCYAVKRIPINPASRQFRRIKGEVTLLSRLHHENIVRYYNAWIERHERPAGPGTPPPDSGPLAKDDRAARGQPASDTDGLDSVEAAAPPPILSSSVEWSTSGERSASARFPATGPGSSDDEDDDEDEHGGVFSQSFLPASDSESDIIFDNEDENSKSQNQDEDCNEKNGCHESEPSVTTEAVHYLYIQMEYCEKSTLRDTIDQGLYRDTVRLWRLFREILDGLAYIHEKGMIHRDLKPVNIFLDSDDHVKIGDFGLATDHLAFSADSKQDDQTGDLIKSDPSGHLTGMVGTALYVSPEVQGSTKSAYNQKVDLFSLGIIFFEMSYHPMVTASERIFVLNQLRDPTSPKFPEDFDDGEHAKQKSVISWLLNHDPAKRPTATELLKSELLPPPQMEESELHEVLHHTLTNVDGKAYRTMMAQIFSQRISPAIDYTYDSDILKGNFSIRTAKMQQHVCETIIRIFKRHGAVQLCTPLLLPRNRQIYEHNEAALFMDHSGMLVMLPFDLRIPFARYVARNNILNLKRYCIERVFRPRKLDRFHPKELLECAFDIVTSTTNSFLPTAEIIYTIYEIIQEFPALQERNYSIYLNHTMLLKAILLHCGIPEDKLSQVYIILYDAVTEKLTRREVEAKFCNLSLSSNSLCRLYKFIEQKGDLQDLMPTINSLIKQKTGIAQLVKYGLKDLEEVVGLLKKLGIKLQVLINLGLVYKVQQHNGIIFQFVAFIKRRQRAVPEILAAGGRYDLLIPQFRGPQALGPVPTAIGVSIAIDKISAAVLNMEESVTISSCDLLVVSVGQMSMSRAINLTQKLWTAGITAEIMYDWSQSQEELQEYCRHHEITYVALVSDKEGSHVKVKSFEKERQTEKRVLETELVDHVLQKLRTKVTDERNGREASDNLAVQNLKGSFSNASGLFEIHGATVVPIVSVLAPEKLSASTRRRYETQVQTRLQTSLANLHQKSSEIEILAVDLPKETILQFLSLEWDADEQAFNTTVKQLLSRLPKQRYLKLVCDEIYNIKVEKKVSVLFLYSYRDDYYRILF

For the molecule `CNC(=O)[C@]1(C)CC[C@@H](Nc2ncc3c(Br)nn(-c4ccc(-c5cnon5)cc4)c3n2)C1` [(1R,3R)-3-[[3-bromo-1-[4-(1,2,5-oxadiazol-3-yl)phenyl]pyrazolo[3,4-d]pyrimidin-6-yl]amino]-N,1-dimethyl-cyclopentane-carboxamide], the IC50 was 25 to 200 nM. Regarding `CNC(=O)[C@]1(C)CC[C@@H](Nc2ncc3c(Br)nn(-c4ccc(-c5nnco5)cc4)c3n2)C1` [(1R,3R)-3-[[3-bromo-1-[4-(1,3,4-oxadiazol-2-yl)phenyl]pyrazolo[3,4-d]pyrimidin-6-yl]amino]-N,1-dimethyl-cyclopentane-carboxamide], the IC50 lay in the range of 25 to 200 nM. Take `CNC(=O)[C@]1(C)CC[C@@H](Nc2ncc3c(Br)nn(-c4ccc(-c5ccn(C)n5)cc4)c3n2)C1` [(1R,3R)-3-[[3-bromo-1-[4-(1-methyl-pyrazol-3-yl)phenyl]pyrazolo[3,4-d]pyrimidin-6-yl]amino]-N,1-dimethyl-cyclopentanecarboxamide]: the IC50 is 25 to 200 nM. With `CNC(=O)[C@]1(C)CC[C@@H](Nc2ncc3c(Br)nn(-c4ccc(-c5cnn(C)c5)cc4)c3n2)C1` [(1R,3R)-3-[[3-bromo-1-[4-(1-methyl-pyrazol-4-yl)phenyl]pyrazolo[3,4-d]pyrimidin-6-yl]amino]-N,1-dimethyl-cyclopentanecarboxamide], the IC50 lay within 25 to 200 nM. Regarding `CNC(=O)[C@]1(C)CC[C@@H](Nc2ncc3c(Br)nn(-c4ccc5c(c4)OCC(=O)N5CCO)c3n2)C1` [(1R,3R)-3-[[3-bromo-1-[4-(2-hydroxy-ethyl)-3-oxo-1,4-benzoxazin-7-yl]pyrazolo[3,4-d]pyrimidin-6-yl]amino]-N,1-dimethyl-cyclopentanecarboxamide], the IC50 was in the range of 25 to 200 nM.

For `CNC(=O)[C@]1(C)CC[C@@H](Nc2ncc3c(Br)nn(-c4ccc(-c5cnc(C)o5)cc4)c3n2)C1` [(1R,3R)-3-[[3-bromo-1-[4-(2-methyloxazol-5-yl)phenyl]pyrazolo[3,4-d]pyrimidin-6-yl]amino]-N,1-dimethyl-cyclopentane-carboxamide], the IC50 lay within 25 to 200 nM. As for `CNC(=O)[C@]1(C)CC[C@@H](Nc2ncc3c(Br)nn(-c4ccc(-c5cncn5C)cc4)c3n2)C1` [(1R,3R)-3-[[3-bromo-1-[4-(3-methylimidazol-4-yl)phenyl]pyrazolo[3,4-d]pyrimidin-6-yl]amino]-N,1-dimethyl-cyclopentane-carboxamide], the IC50 was 25 to 200 nM.

Regarding `CNC(=O)[C@]1(C)CC[C@@H](Nc2ncc3c(Br)nn(-c4ccc(C5=NOCC5)cc4)c3n2)C1` [(1R,3R)-3-[[3-bromo-1-[4-(4,5-dihydro-isoxazol-3-yl)phenyl]pyrazolo[3,4-d]pyrimidin-6-yl]amino]-N,1-dimethyl-cyclopentanecarboxamide], the IC50 was in the range of 25 to 200 nM. As to `CNC(=O)[C@]1(C)CC[C@@H](Nc2ncc3c(Br)nn(-c4ccc(C5=NCCO5)cc4)c3n2)C1` [(1R,3R)-3-[[3-bromo-1-[4-(4,5-dihydro-oxazol-2-yl)phenyl]pyrazolo[3,4-d]pyrimidin-6-yl]amino]-N,1-dimethyl-cyclopentanecarboxamide], the IC50 was in the range of 25 to 200 nM. For `CNC(=O)[C@]1(C)CC[C@@H](Nc2ncc3c(Br)nn(-c4ccc(-c5cnn(C)c5C#N)cc4)c3n2)C1` [(1R,3R)-3-[[3-bromo-1-[4-(5-cyano-1-methyl-pyrazol-4-yl)phenyl]pyrazolo[3,4-d]pyrimidin-6-yl]amino]-N,1-dimethyl-cyclopentane-carboxamide], the IC50 was in the range of 25 to 200 nM. Next, `CNC(=O)[C@]1(C)CC[C@@H](Nc2ncc3c(Br)nn(-c4ccc(-c5nnc(C6CC6)o5)cc4)c3n2)C1` [(1R,3R)-3-[[3-bromo-1-[4-(5-cyclopropyl-1,3,4-oxadiazol-2-yl)phenyl]pyrazolo[3,4-d]pyrimidin-6-yl]amino]-N,1-dimethyl-cyclopentane-carboxamide]: 25 to 200 nM. In the case of `CCc1nnc(-c2ccc(-n3nc(Br)c4cnc(N[C@@H]5CC[C@@](C)(C(=O)NC)C5)nc43)cc2)s1` [(1R,3R)-3-[[3-bromo-1-[4-(5-ethyl-1,3,4-thiadiazol-2-yl)phenyl]pyrazolo[3,4-d]pyrimidin-6-yl]amino]-N,1-dimethyl-cyclopentanecarboxamide], the IC50 was in the range of 25 to 200 nM. In the case of `CNC(=O)[C@]1(C)CC[C@@H](Nc2ncc3c(Br)nn(-c4ccc(-c5nnc(C(C)C)o5)cc4)c3n2)C1` [(1R,3R)-3-[[3-bromo-1-[4-(5-isopropyl-1,3,4-oxadiazol-2-yl)phenyl]pyrazolo[3,4-d]pyrimidin-6-yl]amino]-N,1-dimethyl-cyclopentanecarboxamide], the IC50 lay in the range of 25 to 200 nM. Consider `CNC(=O)[C@]1(C)CC[C@@H](Nc2ncc3c(Br)nn(-c4ccc(-c5noc(C)n5)cc4)c3n2)C1` [(1R,3R)-3-[[3-bromo-1-[4-(5-methyl-1,2,4-oxadiazol-3-yl)phenyl]pyrazolo [3,4-d]pyrimidin-6-yl]amino]-N,1-dimethyl-cyclopentanecarboxamide], for which the IC50 lay within 25 to 200 nM.

Turning to `CNC(=O)[C@]1(CC(F)F)CC[C@@H](Nc2ncc3c(Br)nn(-c4ccc(-c5nnc(C)o5)cc4)c3n2)C1` [(1R,3R)-3-[[3-bromo-1-[4-(5-methyl-1,3,4-oxadiazol-2-yl)phenyl]pyrazolo[3,4-d]pyrimidin-6-yl]amino]-1-(2,2-difluoroethyl)-N-methyl-cyclopentanecarboxamide], the IC50 lay in the range of 25 to 200 nM. For the molecule `CNC(=O)[C@]1(C)CC[C@@H](Nc2ncc3c(Br)nn(-c4ccc(-c5nnc(C)o5)cc4)c3n2)C1` [(1R,3R)-3-[[3-bromo-1-[4-(5-methyl-1,3,4-oxadiazol-2-yl)phenyl]pyrazolo[3,4-d]pyrimidin-6-yl]amino]-N,1-dimethyl-cyclo-pentanecarboxamide], the IC50 is below 25 nM. On to `CNC(=O)[C@@H]1CC[C@@H](Nc2ncc3c(Br)nn(-c4ccc(-c5nnc(C)o5)cc4)c3n2)C1` [(1R,3R)-3-[[3-bromo-1-[4-(5-methyl-1,3,4-oxadiazol-2-yl)phenyl]pyrazolo[3,4-d]pyrimidin-6-yl]amino]-N-methyl-cyclopentanecarboxamide], for which the IC50 was 25 to 200 nM. `CNC(=O)[C@]1(C)CC[C@@H](Nc2ncc3c(Br)nn(-c4ccc(-c5nnc(C)s5)c(CCN5CCOCC5)c4)c3n2)C1` [(1R,3R)-3-[[3-bromo-1-[4-(5-methyl-1,3,4-thiadiazol-2-yl)-3-(2-morpholino-ethyl)phenyl]pyrazolo[3,4-d]pyrimidin-6-yl]amino]-N,1-dimethyl-cyclo-pentanecarboxamide]: the IC50 lay in the range of 25 to 200 nM. With `CNC(=O)[C@]1(C)CC[C@@H](Nc2ncc3c(Br)nn(-c4ccc(-c5nnc(C)s5)c(CC(O)C(F)(F)F)c4)c3n2)C1` (stereo partly drawn) [(1R,3R)-3-[[3-bromo-1-[4-(5-methyl-1,3,4-thiadiazol-2-yl)-3-(3,3,3-trifluoro-2-hydroxy-propyl)phenyl]pyrazolo[3,4-d]pyrimidin-6-yl]amino]-N,1-dimethyl-cyclopentane-carboxamide], the IC50 was 25 to 200 nM. Next, `CNC(=O)[C@]1(C)CC[C@@H](Nc2ncc3c(Br)nn(-c4ccc(-c5nnc(C)s5)c(CCNCC(F)(F)F)c4)c3n2)C1` [(1R,3R)-3-[[3-bromo-1-[4-(5-methyl-1,3,4-thiadiazol-2-yl)-3-[2-(2,2,2-trifluoroethylamino)ethyl]phenyl]pyrazolo[3,4-d]pyrimidin-6-yl]amino]-N,1-dimethyl-cyclopentanecarboxamide]: 25 to 200 nM; `CNC(=O)[C@]1(CO)CC[C@@H](Nc2ncc3c(Br)nn(-c4ccc(-c5nnc(C)s5)cc4)c3n2)C1` [(1R,3R)-3-[[3-bromo-1-[4-(5-methyl-1,3,4-thiadiazol-2-yl)phenyl]pyrazolo [3,4-d]pyrimidin-6-yl]amino]-1-(hydroxymethyl)-N-methyl-cyclo-pentanecarboxamide]: 25 to 200 nM; `CNC(=O)[C@]1([C@@H](C)C#N)CC[C@@H](Nc2ncc3c(Br)nn(-c4ccc(-c5nnc(C)s5)cc4)c3n2)C1` [(1R,3R)-3-[[3-bromo-1-[4-(5-methyl-1,3,4-thiadiazol-2-yl)phenyl]pyrazolo [3,4-d]pyrimidin-6-yl]amino]-1-[(1R)-1-cyanoethyl]-N-methyl-cyclopentane-carboxamide]: 25 to 200 nM. With `CNC(=O)[C@]1([C@H](C)C#N)CC[C@@H](Nc2ncc3c(Br)nn(-c4ccc(-c5nnc(C)s5)cc4)c3n2)C1` [(1R,3R)-3-[[3-bromo-1-[4-(5-methyl-1,3,4-thiadiazol-2-yl)phenyl]pyrazolo [3,4-d]pyrimidin-6-yl]amino]-1-[(1S)-1-cyanoethyl]-N-methyl-cyclopentane-carboxamide], the IC50 was in the range of 25 to 200 nM.

Consider `Cc1nnc(-c2ccc(-n3nc(Br)c4cnc(N[C@@H]5CC[C@@](C)(C(=O)NCC(F)F)C5)nc43)cc2)s1` [(1R,3R)-3-[[3-bromo-1-[4-(5-methyl-1,3,4-thiadiazol-2-yl)phenyl]pyrazolo [3,4-d]pyrimidin-6-yl]amino]-N-(2,2-difluoroethyl)-1-methyl-cyclopentane-carboxamide], for which the IC50 was in the range of 25 to 200 nM. As to `COCCNC(=O)[C@]1(C)CC[C@@H](Nc2ncc3c(Br)nn(-c4ccc(-c5nnc(C)s5)cc4)c3n2)C1` [(1R,3R)-3-[[3-bromo-1-[4-(5-methyl-1,3,4-thiadiazol-2-yl)phenyl]pyrazolo [3,4-d]pyrimidin-6-yl]amino]-N-(2-methoxyethyl)-1-methyl-cyclopentane-carboxamide], the IC50 fell in the range of 25 to 200 nM. As for `Cc1nnc(-c2ccc(-n3nc(Br)c4cnc(N[C@@H]5CC[C@@](C)(C(=O)NC6CC6)C5)nc43)cc2)s1` [(1R,3R)-3-[[3-bromo-1-[4-(5-methyl-1,3,4-thiadiazol-2-yl)phenyl]pyrazolo[3,4-d]pyrimidin-6-yl]amino]-N-cyclopropyl-1-methyl-cyclopentanecarboxamide], the IC50 is 25 to 200 nM. As for `CNC(=O)[C@]1(C)CC[C@@H](Nc2ncc3c(Br)nn(-c4ccc(-c5ncc(C)[nH]5)cc4)c3n2)C1` [(1R,3R)-3-[[3-bromo-1-[4-(5-methyl-1H-imidazol-2-yl)phenyl]pyrazolo[3,4-d]pyrimidin-6-yl]amino]-N,1-dimethyl-cyclopentanecarboxamide], the IC50 is 25 to 200 nM.
